# Test results taken from patent publication US20220193072A1, “METHODS OF TREATING BREAST CANCER WITH TETRAHYDRONAPHTHALENE DERIVATIVES AS ESTROGEN RECEPTOR DEGRADER” (Arvinas Operations, Inc., priority 2020, published 2022).
# Where “and” joins values, the source holds several entries; their conditions need not be identical. Identical values can stand only once.
# Tests used:
# ER-target genes = assay: Expression of ER-target genes (GREB1, PR); format: cell-based; conditions: MCF7 and T47D
# [1] = system: cell lines expressing ESR1 variants Y537S and D538G; assay: Growth of cell lines expressing ESR1 variants; format: cell-based
# MCF7 xenograft [2] = assay: Tumor growth inhibition in orthotopic MCF7/estradiol xenograft model, single agent; format: in vivo, NOD/SCID mice; conditions: for tumor growth inhibition (TGI): 28 days, vs vehicle
# Procedure: Species: NOD/SCID female mice (Charles River, 6-7 weeks old upon arrival).
# Animal handling: Axial mammary fat pad implantation of 5×10^6 MCF7 cells/200 per mouse (17β-estradiol 0.36 mg 90-day pellet implanted day before).
# Tumor volumes were evaluated twice per week for twenty-eight days.
# Sampling: Tumors were measured twice weekly. Terminal sacrifice was ˜18 hr after last dose; tumors were harvested, divided, and flash frozen. ERα levels were determined by immunoblotting.
# Tumor volume calculation: Tumor Volume=(width×width×length)/2, where all measurements are in mm and the tumor volume is in mm^3.
# Tumor Growth Inhibition (TGI) calculation: TGI (%)
# [3] = Phase I dose escalation safety; format: in vivo, human; conditions: 30 mg/day cohort, n=3
# Source text: A Phase I Clinical Trial with Compound (I-c) was undertaken. A traditional 3+3 dose escalation design was implemented. […] Dose increases were dependent on toxicities.
# The key entry criteria for this trial were: ER+/HER2− advanced breast cancer; at least two prior endocrine therapies in any setting, and a CDK4/6 inhibitor; and up to three prior cytotoxic chemotherapy regimens.
# MCF7 xenograft [4] = assay: MCF7 orthotopic xenograft, combination with CDK4/6 inhibitor; format: in vivo, NOD/SCID mice
# ESR1 (Y537S) PDX = ESR1 (Y537S) PDX model tumor growth inhibition; format: in vivo; conditions: for tumor growth inhibition (TGI): ESR1 (Y537S) PDX, 28 days
# T47D cells = assay: Live-cell imaging growth studies and EC50 for growth inhibition, T47D; format: cell-based; conditions: Homo sapiens, read-out: Approximate Half-maximal Effective Concentration (EC50) for growth inhibition
# Procedure: (§1) MCF7, T47D, T47D ESR1 Y537S or T47D ESR1 D538G cells were seeded at 2×10^5 density per well in 6-well tissue culture-treated plates in DMEM/F12/10% FBS (2 mL total volume). […] The plate was then placed in the Incucyte® S3 Live-Cell Analysis System and images were acquired every 4 hours for a total of 5 days (120 hours). Data were analyzed using the Incucyte® Software v2020C which quantified cell surface area coverage as confluence values. Relative growth was calculated for all timepoints for all growth conditions relative to the confluence value observed for the control at 120 hours. Graphing and statistical analyses were performed using Graphpad Prism (GraphPad Software).
# T47D ESR1 Y537S cells = assay: Live-cell imaging growth studies and EC50 for growth inhibition, T47D ESR1 Y537S; format: cell-based; conditions: Homo sapiens, read-out: Approximate Half-maximal Effective Concentration (EC50) for growth inhibition
# Procedure: as §1
# MCF7 xenograft [5] = assay: MCF7 orthotopic xenograft, combination with mTOR inhibitor everolimus; format: in vivo, NOD/SCID mice
# Procedure: (§2) NOD/SCID female mice (Charles River, 6-7 weeks old upon arrival) were implanted with 17b-estradiol 0.72 mg 90-day pellets. The next day, each mouse was implanted with 5×10^6 MCF7 cells/100 mL per in the axial mammary fat pad. Compound administration was initiated once the tumors reached 175-200 mm^3. Diet was supplemented with peanut butter to help maintain body weights. […] (FIG. 28 and Table 13).
# Error bars represent standard deviation.
# (§3) The ratio of Tween 80 to PEG-400 is 0.02 g Tween 80 to 1 ml PEG-400. PEG-400 is added to a pre-aliquoted volume of Tween 80. • For everolimus: 10% DMSO, 90% (2% Tween 80, PEG 400) (DMSO/PEG/Tween) Sampling: tumors were measured twice weekly. Terminal sacrifice was ˜18 hr after last dose. Tumor volume calculation: Tumor Volume=(width×width×length)/2, where all measurements are in mm and the tumor volume is in mm^3. Tumor Growth Inhibition (TGI) calculation: TGI (%)
# MCF7 xenograft [6] = assay: MCF7 orthotopic xenograft, combination with PI3K inhibitor alpelisib; format: in vivo, NOD/SCID mice
# Procedure: as §2, with “[…]” for “mL per”, “weights. Dosing holidays occurred on days 6, 7, 8 and 9 due to body weight loss in some animals in study arms 3 and 4.” for “weights.”, “31” for “28”, “15).” for “13).”
# Dosing holidays occurred on days 6, 7, 8 and 9. Error bars represent standard deviation.
# as §3, with “alpelisib: 1% carboxymethylcellulose (CMC), 0.5%” for “everolimus: 10% DMSO, 90% (2%”, “80/DI water (‘CMC/Tween’)” for “80, PEG 400) (DMSO/PEG/Tween)”
# estrogen receptor = assay: In vitro ER degradation in ER-positive breast cancer cell lines (DC50); conditions: wild-type and variant ERα expressing cell lines
# [7] = Compound (I-c) 30 mg/kg oral QD x 28
# [8] = Compound (I-c) 30 mg/kg oral QD x 26
# [9] = Compound (I-c) 30 mg/kg oral QD x 19
smiles,measurement,setting,value
"O=C1CC[C@H](N2Cc3cc(N4CCN(CC5CCN(c6ccc([C@@H]7c8ccc(O)cc8CC[C@@H]7c7ccccc7)cc6)CC5)CC4)ccc3C2=O)C(=O)N1 [Compound (I-c), (3S)-3-[5-[4-[[1-[4-[(1R,2S)-6-hydroxy-2-phenyl-tetralin-1-yl]phenyl]-4-piperidyl]methyl]piperazin-1-yl]-1-oxo-isoindolin-2-yl]piperidine-2,6-dione]",expression of classically-regulated ER-target genes,ER-target genes,decreases
same,growth of cell lines expressing ESR1 variants Y537S and D538G,[1],inhibits growth
same,Day 28 Tumor volume (mean ± SD),MCF7 xenograft [2]; 3 mg/kg oral QD x 28,286 ± 206 mm^3
same,TGI (% vehicle),MCF7 xenograft [2]; 3 mg/kg oral QD x 28,85 % vehicle
same,tumor growth inhibition (TGI),MCF7 xenograft [2]; 3 mg/kg oral once daily,85%
same,Day 28 Tumor volume (mean ± SD),MCF7 xenograft [2]; 10 mg/kg oral QD x 28,226 ± 118 mm^3
same,TGI (% vehicle),MCF7 xenograft [2]; 10 mg/kg oral QD x 28,98 % vehicle
same,tumor growth inhibition (TGI),MCF7 xenograft [2]; 10 mg/kg oral once daily,98% and 94%
same,Day 28 Tumor volume (mean ± SD),MCF7 xenograft [2]; 30 mg/kg oral QD x 28,115 ± 79 mm^3
same,TGI (% vehicle),MCF7 xenograft [2]; 30 mg/kg oral QD x 28,124 % vehicle
same,tumor growth inhibition (TGI),MCF7 xenograft [2]; 30 mg/kg oral once daily,124%
same,dose limiting toxicity,[3],no dose limiting toxicity
same,treatment related adverse events,[3],no treatment related adverse events
same,Day 28 Tumor volume (mean ± SD),MCF7 xenograft [4]; [7],170 ± 62 mm^3
same,TGI (% vehicle),MCF7 xenograft [4]; [7],105 % vehicle
same,tumor growth inhibition (TGI),MCF7 xenograft [4]; single agent 30 mg/kg oral QD x 28,105%
same,tumor growth inhibition (TGI),ESR1 (Y537S) PDX; 10 mg/kg oral once daily,99%
same,tumor growth inhibition (TGI),ESR1 (Y537S) PDX; 30 mg/kg oral once daily,106%
same,tumor growth,"ESR1 (Y537S) PDX; ESR1 Y537S hormone-independent PDX, 10 mg/kg",completely inhibited growth
same,EC50,T47D cells,10 nM
same,EC50,T47D ESR1 Y537S cells,50 nM
same,Day 26 Tumor Volume (mean ± SD),MCF7 xenograft [5]; [8],169 ± 77 mm^3
same,TGI (% vehicle),MCF7 xenograft [5]; [8],102 % vehicle
same,tumor growth inhibition (TGI),"MCF7 xenograft [5]; single agent 30 mg/kg oral once daily, 26 days",102%
same,Day 19 Tumor Volume (mean ± SD),MCF7 xenograft [6]; [9],207 ± 62 mm^3
same,TGI (% vehicle),MCF7 xenograft [6]; [9],95 % vehicle
same,tumor growth inhibition (TGI),"MCF7 xenograft [6]; single agent 30 mg/kg oral once daily, 19 days, dosing holidays days 6-9",95%
same,ERα degradation potency,estrogen receptor,single-digit nanomolar
